{
  "source": "patent US7994125B2",
  "about": "“Stem cell factor for preventing chemotherapy-induced depletion of blood cells” (Istituto Superiore Di Sanita, priority 2003, dated 2011)",
  "key": {"[1]": {"tested_on": "CD34+ progenitors", "experiment": "Chemosensitivity of CD34+ progenitors, cell death by ethidium bromide/acridine orange staining", "assay_type": "cell-based, human", "conditions": "CD34+ cells; 24 hours; 1.5 μg/ml cisplatin or 50 ng/ml camptothecin; standard erythroid medium", "source_text": "(§1) FIG. 1. Chemosensitivity of CD34^+ progenitors and erythroid precursors.\n(§2) Unilineage hematopoietic differentiation in bulk and single cell culture. Stem Cells. 1998; 16(suppl 1):51-73.\n(§3) Nature. […] Unilineage hematopoietic differentiation in bulk and single cell culture. Stem Cells. 1998; 16(suppl 1):51-73)."}, "[2]": {"tested_on": "CD34 positive cells", "experiment": "Protection of proliferating CD34 positive cells from chemotherapeutic agents in vitro", "assay_type": "cell-based", "protocol": "(§4) Adult peripheral blood human progenitor cell (HPC) purification and culture. Adult peripheral blood was obtained from male donors after their informed consent and the approval by the Committee for Human Studies. Human CD34^+ precursor cells were purified from peripheral blood by positive selection using the midi-MACS immunomagnetic separation system (Miltenyi Biotec, Bergisch Gladbach, Germany) according to the manufacturer's instructions. CD34^+ precursors were cultured in serum-free medium supplemented with 0.01 U/ml interleukin-3 (IL-3), 0.001 ng/ml GM-CSF and 3 U/ml Epo to induce unilineage erythroid differentiation. […] Cell viability was evaluated by ethidium bromide-acridine orange staining and fluorescence microscopy analysis.^15 The differentiation stage of erythroid precursor cells was evaluated by May-Grünwald-Giemsa staining and cytologic analysis. Ziegler B, Testa U, Condorelli G, Vitelli L, Valtieri M, Peschle C. Unilineage hematopoietic differentiation in bulk and single cell culture. Stem Cells. 1998; 16(suppl 1):51-73. For clonogenetic assay, 10^2 CD34^+ cells and 2×10^2 cells from day 5 or day 7 unilineage erythroid cultures were plated in duplicate in 0.9% methylcellulose containing 40% FCS and saturating concentrations of erythropoietin (3 U/mL), TPO (50 ng/mL), granulocyte macrophage-colony stimulating factor (GM-CSF; 10 ng/mL), M-CSF (250 U/mL), G-CSF (500 U/mL), IL-6 (10 ng/mL), stem cell factor (100 ng/mL), Flt3 ligand (100 ng/mL), and IL-3 (100 U/mL). Colonies were scored after 14 days of culture at 37° C. in a 5% CO2/5% O2/90% N2 humidified atmosphere."}, "[3]": {"tested_on": "erythroid and granulocytic precursor cells, uncommitted CD34+ progenitors", "experiment": "SCF treatment of purified hematopoietic progenitors and precursors exposed to antineoplastic agents", "assay_type": "cell-based, human", "source_text": "Purified populations of hematopoietic progenitors and precursors are routinarily obtained in our laboratory through purification of […] cells from peripheral blood and culture in serum-free medium with unilineage growth factors. Hematopoietic progenitor cells display different sensitivity to the cytotoxic effect of chemotherapeutic agents depending on their lineage commitment and stage of maturation. […] The protective effects of SCF are achieved by administrating this cytokine before the cytotoxic treatment, during the course of the treatment itself and after the toxic stimulus has been interrupted. […] Importantly, once the toxic stimulus has been removed, SCF-treated cells re-enter the differentiative pathway, maintaining their ability to complete successfully the normal maturation process."}, "[4]": {"tested_on": "anti-apoptotic genes belonging to the Bcl-2 family and to the Notch family", "experiment": "Expression of pro- and anti-apoptotic genes in SCF-treated erythroid precursor cells", "assay_type": "cell-based, human", "source_text": "In order to elucidate the mechanisms responsible for the protective effect of SCF from chemotherapy-induced cell death, we analysed the expression of pro- and anti-apoptotic genes in SCF-treated erythroid precursor cells. SCF induced an upregulation of anti-apoptotic genes belonging to the Bcl-2 family and to the Notch family, as well as an increase in the levels of several transcription factors involved in the control of cellular proliferation and survival."}, "[5]": {"tested_on": "day 7 (pro/basophilic) erythroblasts", "protocol": "as §1\n(§5) FIG. 2. […] After 24 hours the percentage of cell death was determined by ethidium bromide/acridine orange staining.\nas §4"}, "[6]": {"tested_on": "caspase 3, caspase 7 and caspase 8", "protocol": "as §5\n(§6) FIG. 4. […] After 48 hours, 4×10^4 cells were washed and replated in standard erythroid medium with or without 100 ng/ml SCF.\nWestern blotting. For detection of caspases, protein extracts were prepared by resuspending cell pellets in 1% NP40 lysis buffer (20 mM Tris/HCl pH 7.2, 200 mM NaCl, 1% NP40) in the presence of 1 mM phenylmethylsulphonyl fluoride (PMSF) and 2 μg/ml each of leupeptin, aprotinin and pepstatin. Concentration of lysates was determined by the Bradford assay (Bio-Rad Laboratories, Richmond, Calif.) and equal amounts of proteins were used for SDS-PAGE. Samples were analyzed by standard immunoblot procedure and visualized by chemiluminescence (Super Signal West Pico Pierce, Rockford, Ill.). Quantification of protein expression levels was performed with the NIH IMAGE software version 1.62 (by Wayne Rasband, National Institutes of Health, Research Services Branch, NIMH)."}, "[7]": {"tested_on": "day 7 erythroid culture cells", "experiment": "Clonogenetic assay of erythroid unilineage culture cells in semisolid medium", "assay_type": "cell-based, human", "conditions": "two-days treatment with 100 ng/ml SCF (day 5 to day 7)", "protocol": "FIG. 5. […] (A) Clonogenetic assay of CD34^+ cells (day 0) or cells grown in liquid culture and subsequently plated in semisolid medium at day 5 or day 7 of erythroid differentiation. Control cells (day 5 and day 7 Epo) were cultivated in standard erythroid medium before the colony assay, whereas SCF-treated cells (day 7 Epo+SCF) received 100 ng/ml SCF from day 5 to day 7 of liquid culture. (B) Cytofluorimetric analysis of glycophorin A-positive cells in erythroid unilineage culture. Cells were analyzed after five (day 5) or seven days (day 7) of erythroid differentiation in standard erythroid medium (Epo) or in the same medium supplied with 100 ng/ml SCF starting from day 5 (Epo+SCF).\nas §2\nSCF supports the selective expansion of erythroid cells in unilineage culture conditions after treatment with chemotherapeutic agents. Theoretically, SCF may promote the growth of non-erythroid cells present in small numbers in erythroblastic cultures, and even specifically protect these contaminants from cytotoxic drugs, thus generating a post-chemotherapy population of non-erythroid cells. […]"}, "[8]": {"tested_on": "Bcl-2 and Bcl-XL", "experiment": "Western blot analysis of Bcl-2 and Bcl-XL levels in day 7 erythroblasts", "assay_type": "cell-based, human", "conditions": "erythroblasts treated for two days with 100 ng/ml SCF versus standard erythroid medium"}, "[9]": {"conditions": "in vivo; cited from earlier work"}, "[10]": {"tested_on": "megakaryocytic precursors", "experiment": "Chemotherapy-induced cell death of megakaryocytic cells", "assay_type": "cell-based", "conditions": "for sensitivity of mature polynucleated megakaryocytic precursors versus day 6 immature precursors: Etoposide 4 micromolar, Daunorubicin 0.5 micromolar or Vincristine 0.5 micromolar", "protocol": "Decreased platelet number is a common side effect of chemotherapy. In a separate set of experiments, the protective effect of SCF on chemotherapy-induced cell death was evaluated on megakaryocytic cells, which derive from hematopoietic stem and progenitor cells and give rise to platelets. […] We pretreated immature megakaryocytic precursors at day 4 of differentiation with SCF for 48 hours before exposure to chemotherapeutic agents. SCF was maintained during the exposure to chemotherapic agents."}, "[11]": {"tested_on": "day 7 erythroblasts", "experiment": "Erythroblast recovery and expansion after removal of cisplatin", "assay_type": "cell-based", "protocol": "as §6"}, "[12]": {"tested_on": "day 14 (orthochromatic) erythroblasts", "experiment": "Chemosensitivity of day 14 erythroblasts, cell death by ethidium bromide/acridine orange staining", "assay_type": "cell-based", "conditions": "24 hours, 1.5 μg/ml cisplatin or 50 ng/ml camptothecin", "source_text": "as §1, §2, §3"}},
  "data": [
    {"molecule": "N.N.[Cl][Pt][Cl]", "note": "[cisplatin, reference compound]", "values": [
      {"measurement": "sensitivity to drug-induced apoptosis", "setting": "[1]", "result": "modest sensitivity"},
      {"measurement": "death of CD34 positive cells in absence of SCF", "setting": "[2]; 3 micrograms/mL Cisplatin, proliferating cells (interleukin-3, fms-like tyrosine kinase 3), no SCF", "result": "virtually all cells die"}
    ]},
    {"molecule": "SCF: haematopoietic growth factor, 18.6 KD, ligand of c-Kit; human recombinant SCF purchased from Peprotech", "values": [
      {"measurement": "protection from death induced by antineoplastic agents", "setting": "[3]", "result": "strong protection"},
      {"measurement": "expression of anti-apoptotic genes of the Bcl-2 family and Notch family", "setting": "[4]", "result": "upregulation"},
      {"measurement": "CD34 positive cells surviving", "setting": "[2]; 3 micrograms/mL Cisplatin, cells induced to proliferate with interleukin-3 (50 units/mL) and fms-like tyrosine kinase 3 (100 nanograms/mL), treated with SCF", "result": "about 50%"},
      {"measurement": "expansion and clonogenetic output after removal of chemotherapeutic drugs", "setting": "[2]; SCF-treated cells, clonogenetic assays", "result": "able to expand and give rise to all the standard hematopoietic populations"},
      {"measurement": "protection of CD34 positive cells from cytotoxic activity of chemotherapeutic agents", "setting": "[2]; in vitro, Cisplatin, Etoposide and Daunorubicin", "result": "protects"},
      {"measurement": "protection of erythroblasts from toxic effects of antineoplastic drugs", "setting": "[5]; 100 ng/ml SCF from day 5 for 48 hours and during exposure, camptothecin, cisplatin or etoposide", "result": "significantly protected"},
      {"measurement": "amount of inactive pro-caspase 3, 7 and 8 versus control erythroblasts", "setting": "[6]; pretreated two days with SCF, 8 hours camptothecin, cisplatin or etoposide", "result": "significantly higher"},
      {"measurement": "growth of erythroid colonies", "setting": "[7]", "result": "significant stimulatory effect"},
      {"measurement": "percentage of granulo-monocytic colonies", "setting": "[7]", "result": "did not significantly increase"},
      {"measurement": "Bcl-2 and Bcl-XL protein levels", "setting": "[8]", "result": "upregulated"},
      {"measurement": "tolerability of administration", "setting": "[9]", "result": "generally well tolerated"},
      {"measurement": "protection of megakaryocytic cells from toxic effects of antineoplastic drugs", "setting": "[10]; 100 ng/ml SCF from day 4 for 48 hours and during exposure, Etoposide, Daunorubicin or Vincristine", "result": "significantly protected"},
      {"measurement": "proliferative activity after removal of the cytotoxic agent", "setting": "[11]; SCF day 5-9, 3 μg/ml cisplatin 48 hours, washed, fresh medium", "result": "regained full proliferative activity"},
      {"measurement": "proliferation of survived erythroid cells with SCF maintained after drug removal", "setting": "[11]; SCF day 5-21, 3 μg/ml cisplatin 48 hours", "result": "high proliferation rate"},
      {"measurement": "survival to cisplatin treatment", "setting": "[11]; preincubated two days with 100 ng/ml SCF, 3 μg/ml cisplatin for 48 hours", "result": "enhanced survival"}
    ]},
    {"molecule": "CC[C@]1(O)C[C@H]2CN(CCc3c([nH]c4ccccc34)[C@@](C(=O)OC)(c3cc4c(cc3OC)N(C=O)[C@H]3[C@@](O)(C(=O)OC)[C@H](OC(C)=O)[C@]5(CC)C=CCN6CC[C@]43[C@@H]65)C2)C1", "note": "[Vincristine]", "values": [
      {"measurement": "sensitivity of mature polynucleated megakaryocytic precursors versus day 6 immature precursors", "setting": "[10]", "result": "more resistant"},
      {"measurement": "death of early megakaryocytic cells", "setting": "[10]; day 6 precursors, Vincristine 0.5 micromolar", "result": 100, "unit": "%"},
      {"measurement": "death of late megakaryocytic cells", "setting": "[10]; day 12 precursors, Vincristine 0.5 micromolar", "result": 20, "unit": "%"}
    ]},
    {"molecule": "COc1cc([C@@H]2c3cc4c(cc3[C@@H](O[C@@H]3O[C@@H]5CO[C@@H](C)O[C@H]5[C@H](O)[C@H]3O)[C@H]3COC(=O)[C@H]23)OCO4)cc(OC)c1O", "note": "[etoposide]", "values": [
      {"measurement": "sensitivity of mature polynucleated megakaryocytic precursors versus day 6 immature precursors", "setting": "[10]", "result": "more resistant"}
    ]},
    {"molecule": "zVAD-fmk [reference compound]", "values": [
      {"measurement": "effect on chemotherapy-induced erythroblast death", "setting": "[5]; zVAD 40 μM, camptothecin, cisplatin or etoposide, 24 hours", "result": "abrogated completely"},
      {"measurement": "effect on drug-induced caspase activation", "setting": "[6]; zVAD 40 μM, day 7 erythroblasts, 8 hours", "result": "abolished caspase activation"}
    ]},
    {"molecule": "CC[C@@]1(O)C(=O)OCc2c1cc1n(c2=O)Cc2cc3ccccc3nc2-1", "note": "[camptothecin]", "values": [
      {"measurement": "sensitivity to drug-induced apoptosis", "setting": "[1]", "result": "modest sensitivity"},
      {"measurement": "sensitivity to cytotoxic effect of chemotherapeutic agents", "setting": "[5]; day 7 immature erythroblasts, 24 hours, 1.5 μg/ml cisplatin or 50 ng/ml camptothecin, saturating Epo", "result": "extremely sensitive"},
      {"measurement": "caspase activation by cytotoxic drug", "setting": "[6]; day 7 erythroblasts, 8 hours, 200 ng/ml camptothecin, 3 μg/ml cisplatin or 5 μM etoposide", "result": "activated caspase 3, 7 and 8"},
      {"measurement": "sensitivity to cytotoxic effect of chemotherapeutic agents", "setting": "[12]", "result": "almost completely resistant"}
    ]},
    {"molecule": "COc1cccc2c1C(=O)c1c(O)c3c(c(O)c1C2=O)C[C@@](O)(C(C)=O)C[C@@H]3O[C@H]1C[C@H](N)[C@H](O)[C@H](C)O1", "note": "[Daunorubicin]", "values": [
      {"measurement": "sensitivity of mature polynucleated megakaryocytic precursors versus day 6 immature precursors", "setting": "[10]", "result": "more resistant"}
    ]}
  ]
}
